Reference: patent US12508248B2, “Therapeutic agent for prototheca disease” (priority 2019, dated 2025)
In brackets after ≈: the same amount, converted by molar mass.

Key:
Prototheca wickerhamii = test: Broth microdilution MIC assay, CLSI M27-A3 guideline; assay type: cell-based; conditions: for MICs: 32 degrees, 72 hours
Procedure: (§1) For Prototheca wickerhamii, isolates (1 cat strain and 2 dog strains) were obtained from dogs and cats suffering from a prototheca disease. For Prototheca zopfii, bovine prototheca mastitis isolates (Genotype 2, 10 strains) and environmental isolates (Genotype 1, 10 strains) were obtained. For Prototheca blaskeae, a prototheca mastitis isolate (1 strain) was obtained. For Prototheca zopfii, the drug susceptibility was tested also on Genotype 1 established strain (SAG20063^T) and Genotype 2 established strain (SAG2021^T).
(§2) The isolates were maintained on Yeast Extract-Peptone-Dextrose agar (YPD: 1% yeast extract, 2% peptone, 2% dextrose, 2% agar) and tested for antifungal susceptibility. The susceptibility of the isolates to the antifungal agents itraconazole (ITZ, Merck KGA) and ravuconazole (RVZ, selenium pharma) was measured using a trace liquid dilution method (broth microdilution assay) according to the CLSI M27-A3 guideline. The minimum inhibitory concentration (MIC) was measured after culturing at 32 degrees for 72 hours. MIC was defined as the lowest concentration that induces significant inhibition of growth (inhibition of about 50% or more). As a control, Candida parapsilosis ATCC 22019 obtained from ATCC was used, and the MIC assay of the CLSI M27-A3 test was performed.

[1] = test system: Prototheca zopfii Genotype 1; test: as above; assay type: cell-based; conditions: for MICs: 32 degrees, 72 hours
Procedure: as §1, §2

Prototheca blaskeae = test: as above; assay type: cell-based; conditions: strain NUBS19005, bovine protothecal mastitis; 32 degrees, 72 hours
Procedure: as §1, §2

[2] = test system: Prototheca zopfii Genotype 2; test: as above; assay type: cell-based; conditions: 32 degrees, 72 hours
Procedure: as §1, §2

prototheca species = test: Overall comparison of anti-algae effect against prototheca species; assay type: cell-based
Procedure: as §2

[3] = test system: Candida parapsilosis ATCC 22019; test: MIC assay of the CLSI M27-A3 test, control strain; assay type: cell-based
Procedure: as §2

[4] = test system: several strains of Prototheca wickerhamii and Prototheca zopfii; conditions: previous study on susceptibility, Non-Patent Document 1; cited from earlier work
[5] = when administered to humans; cited from earlier work
[6] = strain NUBS19001, feline protothecosis
[7] = strain NUBS19002, canine protothecosis
[8] = strain NUBS19003, canine protothecosis
[9] = strain NUBS19004, environment (GT1)
[10] = strain SAG2063T, type strain of (GT1)
[11] = strain A7, bovine protothecal mastitis (GT2)
[12] = strain A8, bovine protothecal mastitis (GT2)
[13] = strain A9, bovine protothecal mastitis (GT2)
[14] = strain A10, bovine protothecal mastitis (GT2)
[15] = strain A11, bovine protothecal mastitis (GT2)
[16] = strain A13, bovine protothecal mastitis (GT2)
[17] = strain A14, bovine protothecal mastitis (GT2)
[18] = strain A15, bovine protothecal mastitis (GT2)
[19] = strain A16, bovine protothecal mastitis (GT2)
[20] = strain A17, bovine protothecal mastitis (GT2)
[21] = strain SAG2021T, type strain of GT2

| Compound | MICs (Prototheca wickerhamii; [6]) [mg/L] | MICs (Prototheca wickerhamii; [7]) [mg/L] | MICs (Prototheca wickerhamii; [8]) [mg/L] | MICs ([1]; strain I1, environment (GT1)) [mg/L] | MICs ([1]; strain I3, environment (GT1)) [mg/L] | MICs [1, 9] [mg/L] | MICs ([1]; strain S2, environment (GT1)) [mg/L] | MICs ([1]; strain S3, environment (GT1)) [mg/L] | MICs ([1]; strain S29, environment (GT1)) [mg/L] | MICs ([1]; strain S36, environment (GT1)) [mg/L] | MICs ([1]; strain S42, environment (GT1)) [mg/L] | MICs [1, 10] [mg/L] | MICs ([1]; strain W3, environment (GT1)) [mg/L] | MICs ([1]; strain W20, environment (GT1)) [mg/L] | MICs (Prototheca blaskeae) [mg/L] | MICs [2, 11] [mg/L] | MICs [2, 12] [mg/L] | MICs [2, 13] [mg/L] | MICs [2, 14] [mg/L] | MICs [2, 15] [mg/L] | further results |
| --- | --- | --- | --- | --- | --- | --- | --- | --- | --- | --- | --- | --- | --- | --- | --- | --- | --- | --- | --- | --- | --- |
| ravuconazole [RVZ] | 0.03 | 0.03 | 0.03 | 0.03 | 0.03 | 0.03 | 0.03 | 0.03 | 0.03 | 0.03 | 0.03 | 0.03 | 0.03 | 0.03 | 0.03 | 0.125 | 0.03 | 0.03 | 0.03 | 0.25 | MIC of the three clinical isolates of Prototheca wickerhamii (Prototheca wickerhamii; summary over three clinical isolates): 0.03 µg/mL; MIC of 11 isolates of Genotype 1 of Prototheca zopfii ([1]; summary over 11 isolates of Genotype 1): 0.03 µg/mL; MICs [2, 16]: 0.125 mg/L; MICs [2, 17]: 0.03 mg/L; MICs [2, 18]: 0.0625 mg/L; MICs [2, 19]: 0.03 mg/L; MICs [2, 20]: 0.25 mg/L; MICs [2, 21]: 0.125 mg/L; effectiveness (anti-algae effect) compared with itraconazole against pathogen of prototheca species (prototheca species; versus itraconazole): more effective; activity compared with publicly known results of kanamycin, gentamicin, amphotericin B and itraconazole against prototheca species (prototheca species; versus publicly known results of KM, GM, AMB, ITZ): stronger activity; MIC for the control strain Candida parapsilosis ATCC 22019 [3]: 0.03 µg/mL |
| gentamicin |  |  |  |  |  |  |  |  |  |  |  |  |  |  |  |  |  |  |  |  | effectiveness against several strains of Prototheca wickerhamii and Prototheca zopfii [4]: not effective |
| CCC(C)n1ncn(-c2ccc(N3CCN(c4ccc(OCC5COC(Cn6cncn6)(c6ccc(Cl)cc6Cl)O5)cc4)CC3)cc2)c1=O (stereo not shown) [ITZ, itraconazole] | >32 | >32 | 4 | 2 | 0.25 | 1 | 32 | 8 | >32 | 16 | 8 | 1.5 | 4 | 4 | 32 | 32 | 4 | >32 | >32 | >32 | MICs [2, 16]: >32 mg/L; MICs [2, 17]: >32 mg/L; MICs [2, 18]: >32 mg/L; MICs [2, 19]: 8 mg/L; MICs [2, 20]: 4 mg/L; MICs [2, 21]: >32 mg/L; MIC ([3]; Lodderomyces parapsilosis, ATCC22019): 0.125 µg/mL (≈ 0.177 µM) |
| C[C@@H]1[C@H](O)[C@@H](C)/C=C/C=C/C=C/C=C/C=C/C=C/C=C/[C@H](O[C@@H]2O[C@H](C)[C@@H](O)[C@H](N)[C@@H]2O)C[C@@H]2O[C@](O)(C[C@@H](O)C[C@@H](O)[C@H](O)CC[C@@H](O)C[C@@H](O)CC(=O)O[C@H]1C)C[C@H](O)[C@H]2C(=O)O [AMB, amphotericin B] |  |  |  |  |  |  |  |  |  |  |  |  |  |  |  |  |  |  |  |  | effectiveness against several strains of Prototheca wickerhamii and Prototheca zopfii [4]: not effective |
| C[C@@H](c1nc(-c2ccc(C#N)cc2)cs1)[C@@](Cn1cncn1)(OCOP(=O)(O)O)c1ccc(F)cc1F [Fosravuconazole, fosravuconazole] |  |  |  |  |  |  |  |  |  |  |  |  |  |  |  |  |  |  |  |  | conversion of prodrug to ravuconazole [5]: rapidly converted to ravuconazole |
